Measurements as given in US20230399313A1, “BIOLOGICAL ACTIVITIES OF 5-(2-(4-(4-FLUORO-2-METHYL-1H-INDOL-5-YLOXY)-6-METHOXYQUINOLIN-7-YLOXY)ETHYL)-5-AZASPIRO[2.4]-HEPTAN-7-OL CRYSTALLINE, PHOSPHORIC ACID SALT AND ITS ENANTIOMERS” (Advenchen Pharmaceuticals, LLC, priority 2022, published 2023).

Experiments:
[1] = Stability of amorphous and crystalline form API at 60° C. (HPLC related substances); assay type: physicochemical
Method: The samples of amorphous and crystalline form API of Compound A were placed in clean containers and the environmental temperature was controlled at 60° C. The purity of amorphous (Compound A-Amp) and crystalline form (Compound A-Xln) of Compound A were tested at Day 0, Day 10 and Day 30. Samples of amorphous and crystalline form APIs were measured, and the appropriate amount of diluent was added to dissolve with sonication. The concentration was controlled at 0.2 mg/ml and the purification was determined by HPLC with UV detector at 230 nm. Results were listed in the table as follows and the fitted curve is in Drawing Sections as FIG. 6.

[2] = biological target: KDR(h) (VEGFr2) (Homo sapiens, UniProt P35968); experiment: Kinase inhibition; assay type: biochemical
Text: (§1) […]. In vitro tyrosine kinase inhibition activities can be measured via commercial resources. Some of these tests can also be contracted with Eurofin or Reaction Biology for screening.
For the kinase inhibition tests, receptor tyrosine kinases are selected from FGFR1(h), FGFR2(h), FGFR3(h), Flt1(h) (VEGFr1), Flt4(h) (VEGFr3), KDR(h) (VEGFr2), Aurora-B, PDGFRα(h) and PDGFRβ(h). […]. […]

[3] = biological target: PDGFRα(h) (Homo sapiens, UniProt P16234); experiment: Kinase inhibition; assay type: biochemical
Text: as §1
(§2) For the kinase inhibition tests, receptor tyrosine kinases are selected from FGFR1(h), FGFR2(h), FGFR3(h), Flt1(h) (VEGFr1), Flt4(h) (VEGFr3), KDR(h) (VEGFr2), Aurora-B, PDGFRα(h) and PDGFRβ(h). […] […].

[4] = biological target: PDGFRβ(h) (Homo sapiens, UniProt P09619); experiment: Kinase inhibition; assay type: biochemical
Text: as §1, §2

[5] = tested on: A2780; experiment: In vitro MTT (proliferation) assay; assay type: cell-based; conditions: Homo sapiens, Ovary
[6] = tested on: HL-60; experiment: In vitro MTT (proliferation) assay; assay type: cell-based; conditions: Homo sapiens, Blood
[7] = tested on: K562; experiment: In vitro MTT (proliferation) assay; assay type: cell-based; conditions: Homo sapiens, Blood
[8] = tested on: HCT-116; experiment: In vitro MTT (proliferation) assay; assay type: cell-based; conditions: Homo sapiens, Colon, read-out: IC50
Method: (§3) The inhibitions of Compound A-Xln, Compound A-P-Xln and two chiral isomers (Compound R-A, Compound S-A) to cancer cell lines are tested via in vitro MTT assay. Cancer cell lines are selected from PANC-1, NCI-H157, MDA-MB-231, Hela, PC-3, BEL7404, MKN45, Ishikawa, Saos-2, SKOV3, SW579 and HCT116 cell lines. The IC50 values are in the micromole scale.
(§4) In vitro MTT (proliferation) assay was performed with compound from above examples to give following inhibition results: […]

[9] = tested on: Hela; experiment: In vitro MTT (proliferation) assay; assay type: cell-based; conditions: Homo sapiens; Cervix, Hela; read-out: IC50
Method: as §3, §4

[10] = tested on: MDA-MB-231; experiment: In vitro MTT (proliferation) assay; assay type: cell-based; conditions: Homo sapiens; Breast, MDA-MB-231; read-out: IC50
Method: as §3, §4

[11] = tested on: SKOV3; experiment: In vitro MTT (proliferation) assay; assay type: cell-based; conditions: Homo sapiens, SK-OV-3; Ovary, SKOV3; read-out: IC50
Method: as §3, §4

[12] = tested on: U937; experiment: In vitro MTT (proliferation) assay; assay type: cell-based; conditions: Homo sapiens, U-937, Blood
Method: as §3, §4

[13] = tested on: SKBR3; experiment: In vitro MTT (proliferation) assay; assay type: cell-based; conditions: Homo sapiens, SK-BR-3, Breast
[14] = tested on: BEL-7402; experiment: In vitro MTT (proliferation) assay; assay type: cell-based; conditions: Homo sapiens, Liver
[15] = tested on: SMMC-7721; experiment: In vitro MTT (proliferation) assay; assay type: cell-based; conditions: Homo sapiens, Liver
[16] = tested on: 786-O; experiment: In vitro MTT (proliferation) assay; assay type: cell-based; conditions: Homo sapiens, 786-0, Kidney
[17] = tested on: SGC7901; experiment: In vitro MTT (proliferation) assay; assay type: cell-based; conditions: Homo sapiens, SGC-7901, Stomach
[18] = tested on: colon cancer cell line HCT116; experiment: Combination therapy MTT assay; assay type: cell-based, human
Method: (§5) Compound A-Xln combination therapy MTT assay results were investigated. 100 μl of cell suspension with a concentration of 5×10^4 cells/ml was added to each well of a 96-well plate, and place in a 37° C., 5% CO2 incubator. After 24 h, Compound A-Xln sample solution was added according to Table 13, 10 μl/well for double-duplicate wells. After 72 hours at 37° C. and 5% CO2 incubation, 20 μl of 5 mg/ml MTT solution was added to each well, then 100 µl/well of dissolving solution was added after 4 hours. The samples were put in an incubator, and a full-wavelength multifunctional enzyme label machine was used after dissolving. The OD value at 570 nm was measured.
(§6) Samples according to Table 14 were also tested for proliferation inhibitor of three colon cancer lines HT29, HCT116 and colo205 by Compound A-Xln, anti-colon cancer agent 5FU/O, and combination of Compound A-Xln and 5FU/O. The results are shown in FIGS. 15-17.

[19] = tested on: colon cancer cell line HT29; experiment: Combination therapy MTT assay; assay type: cell-based, human
Method: as §5, §6

[20] = tested on: colon cancer cell line colo205; experiment: Combination therapy MTT assay; assay type: cell-based, human
Method: as §5, §6

[21] = tested on: murine colorectal CT26 cell line; experiment: Murine colorectal CT26 model, combination with anti-mouse PD-1 antibody; assay type: in vivo, mice; conditions: for Mean tumor volume D0: D0 (first drug administration time, baseline); for Mean tumor volume D0 / Mean tumor volume D17 / T/C D17: CT26 mice
[22] = high temperature 60° C., 10 days
[23] = high temperature 60° C., 30 days

Chain of KDR(h) (VEGFr2) (P35968 20-1356): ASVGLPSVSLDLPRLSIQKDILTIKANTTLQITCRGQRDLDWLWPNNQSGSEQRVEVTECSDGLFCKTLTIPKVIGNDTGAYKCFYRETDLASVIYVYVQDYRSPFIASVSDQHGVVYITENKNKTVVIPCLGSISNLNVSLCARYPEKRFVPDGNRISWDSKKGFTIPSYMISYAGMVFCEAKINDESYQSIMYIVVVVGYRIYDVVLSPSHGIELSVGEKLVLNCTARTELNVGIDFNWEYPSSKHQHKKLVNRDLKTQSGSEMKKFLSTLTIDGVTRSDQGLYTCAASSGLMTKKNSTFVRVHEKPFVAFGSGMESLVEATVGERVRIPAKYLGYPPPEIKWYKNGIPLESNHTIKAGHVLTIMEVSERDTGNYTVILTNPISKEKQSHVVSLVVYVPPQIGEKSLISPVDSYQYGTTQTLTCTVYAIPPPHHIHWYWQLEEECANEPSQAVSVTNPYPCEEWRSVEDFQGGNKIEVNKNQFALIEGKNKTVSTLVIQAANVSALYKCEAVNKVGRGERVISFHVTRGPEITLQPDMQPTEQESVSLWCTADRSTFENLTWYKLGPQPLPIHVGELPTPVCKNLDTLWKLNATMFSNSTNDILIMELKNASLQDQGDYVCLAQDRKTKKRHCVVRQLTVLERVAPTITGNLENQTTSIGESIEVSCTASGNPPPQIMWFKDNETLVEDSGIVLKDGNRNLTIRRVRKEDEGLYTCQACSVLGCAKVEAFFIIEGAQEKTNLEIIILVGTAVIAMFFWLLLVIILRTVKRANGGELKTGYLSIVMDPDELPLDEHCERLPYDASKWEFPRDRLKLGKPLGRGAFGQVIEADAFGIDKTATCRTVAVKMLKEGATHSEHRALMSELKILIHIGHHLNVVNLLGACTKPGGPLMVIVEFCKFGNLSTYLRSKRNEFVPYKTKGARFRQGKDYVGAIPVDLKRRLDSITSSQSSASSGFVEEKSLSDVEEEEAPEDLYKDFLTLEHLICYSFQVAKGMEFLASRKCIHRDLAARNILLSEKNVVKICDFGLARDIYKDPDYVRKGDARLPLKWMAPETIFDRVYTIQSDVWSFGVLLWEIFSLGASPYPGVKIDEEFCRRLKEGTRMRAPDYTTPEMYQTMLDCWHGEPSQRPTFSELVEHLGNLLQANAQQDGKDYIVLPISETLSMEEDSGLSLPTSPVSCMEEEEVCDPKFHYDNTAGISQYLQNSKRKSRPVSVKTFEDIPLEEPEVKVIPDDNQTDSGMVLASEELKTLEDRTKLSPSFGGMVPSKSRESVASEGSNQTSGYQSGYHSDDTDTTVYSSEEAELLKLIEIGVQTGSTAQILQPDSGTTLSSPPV
Chain of PDGFRβ(h) (P09619 33-1106): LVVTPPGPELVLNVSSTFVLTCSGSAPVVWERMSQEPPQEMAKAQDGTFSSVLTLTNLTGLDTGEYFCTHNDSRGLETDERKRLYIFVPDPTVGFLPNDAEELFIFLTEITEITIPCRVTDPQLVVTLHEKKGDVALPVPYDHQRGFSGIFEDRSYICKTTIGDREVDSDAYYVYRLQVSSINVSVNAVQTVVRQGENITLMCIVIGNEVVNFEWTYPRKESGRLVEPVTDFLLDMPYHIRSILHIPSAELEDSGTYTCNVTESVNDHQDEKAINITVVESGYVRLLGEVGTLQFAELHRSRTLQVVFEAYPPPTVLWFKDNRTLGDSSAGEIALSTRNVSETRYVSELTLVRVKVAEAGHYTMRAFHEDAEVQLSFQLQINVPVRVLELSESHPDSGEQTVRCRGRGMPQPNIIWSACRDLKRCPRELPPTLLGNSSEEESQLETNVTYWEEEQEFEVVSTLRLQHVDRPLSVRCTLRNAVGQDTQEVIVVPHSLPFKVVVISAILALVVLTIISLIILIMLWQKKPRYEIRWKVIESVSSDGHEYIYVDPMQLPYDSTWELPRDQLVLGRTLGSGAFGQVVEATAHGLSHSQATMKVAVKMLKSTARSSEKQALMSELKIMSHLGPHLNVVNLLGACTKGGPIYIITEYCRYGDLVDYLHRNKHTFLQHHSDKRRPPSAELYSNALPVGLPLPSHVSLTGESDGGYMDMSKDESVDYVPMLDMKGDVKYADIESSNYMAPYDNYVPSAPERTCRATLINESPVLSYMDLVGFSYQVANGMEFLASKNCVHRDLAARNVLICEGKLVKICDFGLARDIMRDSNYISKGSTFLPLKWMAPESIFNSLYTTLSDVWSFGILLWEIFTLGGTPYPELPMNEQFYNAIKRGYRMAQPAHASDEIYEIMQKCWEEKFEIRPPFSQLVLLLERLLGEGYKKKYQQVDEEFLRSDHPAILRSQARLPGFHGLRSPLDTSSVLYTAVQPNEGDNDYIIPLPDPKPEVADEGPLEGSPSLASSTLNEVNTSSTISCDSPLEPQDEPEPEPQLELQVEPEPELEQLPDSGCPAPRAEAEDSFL
Chain of PDGFRα(h) (P16234 24-1089): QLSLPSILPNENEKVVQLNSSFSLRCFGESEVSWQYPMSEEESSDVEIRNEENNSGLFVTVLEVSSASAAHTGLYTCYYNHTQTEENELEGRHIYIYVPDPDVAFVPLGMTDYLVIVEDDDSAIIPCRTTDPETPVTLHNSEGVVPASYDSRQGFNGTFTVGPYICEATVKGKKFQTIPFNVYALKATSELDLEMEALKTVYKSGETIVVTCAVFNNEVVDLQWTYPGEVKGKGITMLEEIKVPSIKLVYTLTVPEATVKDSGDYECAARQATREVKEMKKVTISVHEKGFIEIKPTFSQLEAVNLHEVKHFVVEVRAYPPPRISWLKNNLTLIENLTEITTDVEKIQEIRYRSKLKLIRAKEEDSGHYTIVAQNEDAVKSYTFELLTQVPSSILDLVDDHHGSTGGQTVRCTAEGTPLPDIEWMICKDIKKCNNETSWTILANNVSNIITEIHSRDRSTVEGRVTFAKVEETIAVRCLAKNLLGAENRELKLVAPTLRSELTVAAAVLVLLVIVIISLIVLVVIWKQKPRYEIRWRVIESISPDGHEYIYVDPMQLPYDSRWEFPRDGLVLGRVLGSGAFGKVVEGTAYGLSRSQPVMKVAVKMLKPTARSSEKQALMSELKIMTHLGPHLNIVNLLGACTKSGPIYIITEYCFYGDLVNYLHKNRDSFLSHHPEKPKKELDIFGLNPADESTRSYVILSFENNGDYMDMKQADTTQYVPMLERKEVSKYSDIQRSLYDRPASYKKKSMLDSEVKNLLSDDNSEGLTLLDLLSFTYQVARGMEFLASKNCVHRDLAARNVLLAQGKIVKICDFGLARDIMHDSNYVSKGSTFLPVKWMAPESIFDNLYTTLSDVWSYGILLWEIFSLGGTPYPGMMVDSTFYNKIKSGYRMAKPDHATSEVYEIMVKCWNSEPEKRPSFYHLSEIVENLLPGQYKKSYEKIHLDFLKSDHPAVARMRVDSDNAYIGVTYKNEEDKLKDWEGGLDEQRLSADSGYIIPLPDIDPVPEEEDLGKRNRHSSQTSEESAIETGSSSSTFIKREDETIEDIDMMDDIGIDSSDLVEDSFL

## COc1cc2c(Oc3ccc4[nH]c(C)cc4c3F)ccnc2cc1OCCN1CC(O)C2(CC2)C1 (stereo not drawn) [Compound A-Xln, 5-(2-(4-(4-fluoro-2-methyl-1H-indol-5-yloxy)-6-methoxyquinolin-7-yloxy)ethyl)-5-azaspiro[2.4]-heptan-7-ol]
[1]; 0 day
  Maximum impurities (%): 0.032%
  Total impurities (%): 0.078%
[1]; 60° C., up to 30 days
  Stability compared with the amorphous form: better stability than A-Amp
[1]; [22]
  Maximum impurities (%): 0.039%
  Total impurities (%): 0.115%
[1]; [23]
  Maximum impurities (%): 0.063%
  Total impurities (%): 0.194%
[2]
  IC50: 0.015 µM
[3]
  IC50: 0.16 µM
[4]
  IC50: 0.026 µM
[5]
  IC50: 2.63 ± 0.27 µM
[6]
  IC50: 1.98 ± 1.13 µM
[7]
  IC50: 6.37 ± 2.56 µM
[8]
  IC50: 11.7 ± 3.69 µM
[9]
  IC50: 11.2 ± 2.71 µM
[10]
  IC50: 7.77 ± 0.02 µM
[11]
  IC50: 17.1 ± 0.55 µM
[12]
  IC50: 10 ± 2.28 µM
[13]
  IC50: 12.2 ± 2 µM
[14]
  IC50: 0.86 ± 0.15 µM
[15]
  IC50: 8.01 ± 2.53 µM
[16]
  IC50: 10.1 ± 3.97 µM
[17]
  IC50: 6.64 ± 0.81 µM
[18]; HCT116, Compound A-Xln and 5FU/O dosed Day 1/Day 2 in either order
  Inhibition activity in sequential dosing: higher activity on regimen of dosing chemotherapy agents first followed by dosing Compound A later
[18]; HCT116, combined with 5FU/O
  Proliferation inhibition in combination: increased
[19]; HT29, Compound A-Xln and 5FU/O dosed Day 1/Day 2 in either order
  Inhibition activity in sequential dosing: higher activity on regimen of dosing chemotherapy agents first followed by dosing Compound A later
[19]; HT29, combined with 5FU/O
  Proliferation inhibition in combination: increased
[20]; colo205, Compound A-Xln and 5FU/O dosed Day 1/Day 2 in either order
  Inhibition activity in sequential dosing: higher activity on regimen of dosing chemotherapy agents first followed by dosing Compound A later
[20]; colo205, combined with 5FU/O
  Proliferation inhibition in combination: increased
[21]; 5 mg/kg/Qd i.g.
  Mean tumor volume D0: 127.8 mm^3
  Mean tumor volume D17: 1625.3 mm^3
  T/C D17: 72.04%
[21]; 15 mg/kg/Qd i.g.
  Mean tumor volume D0: 128.5 mm^3
  Mean tumor volume D17: 829.0 mm^3
  T/C D17: 36.67%
[21]; CT26 model, Compound A-Xln once daily plus anti-mouse PD-1 200 μg/mouse every 3 days
  Efficacy of combination treatment with an anti-PD1 antibody agent: increased efficacy
